From PMC9863607, “Combined Use of Antimicrobial Peptides with Antiseptics against Multidrug-Resistant Bacteria: Pros and Cons” (Pharmaceutics, 2023)
Read-outs that look alike come from different tables or passages of the source. Peptide text beside a SMILES is read from it.

Experiments:
[1] = tested on: P. aeruginosa MDR 522/17; experiment: Crystal violet assay of biofilm formation; assay type: cell-based, Pseudomonas aeruginosa; conditions: median of 3 independent experiments; for Minimal FECI, AMP + CAPB, biofilm formation: combination with cocamidopropyl betaine; for Minimal FECI, AMP + CAPB, biofilm formation / Minimal FECI, AMP + DXD, biofilm formation / Minimal FECI, AMP + ETA, biofilm formation / Minimal FECI, AMP + PVG, biofilm formation / Minimal FECI, AMP + PTS, biofilm formation: sub-microbicidal concentrations; for Minimal FECI, AMP + DXD, biofilm formation: combination with dioxydin; for Minimal FECI, AMP + ETA, biofilm formation: combination with etidronic acid; for Minimal FECI, AMP + PVG, biofilm formation: combination with poviargolum; for Minimal FECI, AMP + PTS, biofilm formation: combination with prontosan; for MECBF partially inhibiting bacterial biofilms: minimal concentration with significant decrease vs intact control (Mann–Whitney, p < 0.05), 24 h, 37 °C, MHB
Protocol: The impact of the tested antimicrobials and their combinations on the formation of biofilms was quantitated as per the crystal violet assay protocol published by Merritt et al.. Testing was performed in 96-well immunological plates with U-shaped bottoms. […] Experimental samples were quadruplicated, and control without antimicrobials was octuplicated.
Then, the liquid content of the test plates was discarded, and the plates were gently washed in still water from residual traces of unattached planktonic bacteria. Each well was supplied with 125 μL 0.1% aqueous solution of crystal violet dye for 10 min at room temperature to stain biofilm components left attached to the surface. After staining, the plates were washed with clear water once more to remove excessive dye and left to air-dry. To quantify the amount of the bound dye corresponding to the thickness of the formed biofilm, it was redissolved in 30% acetic acid, 200 μL of which was introduced into each well. After 15 min at room temperature, the content of the wells was mixed by repetitive pipetting to ensure complete dye extraction, and 125 μL of each sample was transferred well-by-well into 96-well clear flat-bottom plates for spectrophotometric examination. OD was measured at 580 nm. Final results were calculated as medians based on three independent experiments.
Analyzing the combined action of AMPs and antiseptics (AS) in sub-microbicidal concentrations toward biofilms, we adopted the same approach based on the calculation of fractional indices as the one we used while testing antimicrobial activity on planktonic bacteria. For combinations, the series of concentrations from [MECBF(AMP) + MECBF(AS)], [½MECBF(AMP) + ½MECBF(AS)] and down to [1/32 × MECBF(AMP) + 1/32 × MECBF(AS)] was analyzed. […] The minimal FECI > 4 was interpreted as antagonism, FECI ≤ 0.5 as synergy, 0.5 < FECI ≤ 1 as additivity, and 1 < FECI ≤ 4 as independent action.

[2] = tested on: E. coli ML-35p; experiment: Fluorometric resazurin assay of bacterial metabolic activity; assay type: cell-based, Escherichia coli; conditions: ¼ MIC AMP + ¼ MIC poviargolum; became comparable to ½ MIC of the peptide
Protocol: The decline in metabolic activity of bacterial cells faced against test substances or their combinations was tracked using resazurin dye, also known as alamarBlue. […] Thus, resazurin-to-resorufin conversion was primarily associated with energy metabolism impairment.
The experimental procedure was basically the same as for permeability testing except for the substitution of the markers by 120 μM resazurin and the addition of 0.1% MHB to provide bacteria with a metabolic substrate. An additional control without both antimicrobials and bacterial cells was included to imitate the zero metabolic activity level. Though resazurin-to-resorufin transformation can be observed via either spectrometry or fluorimetry, the latter was preferred as a more sensitive method. Experiments were conducted in 96-well white opaque plates. Temperature and shaking parameters were left unchanged. Fluorescence intensity was measured at 590 nm with excitation at 560 nm. Data were collected every 3 min for 4–6 h using a Gemini EM plate spectrofluorimeter (Molecular Devices, San Jose, CA, USA).

[3] = tested on: normal human dermal fibroblasts; experiment: MTT test and/or direct cell count by light microscopy; conditions: for FECI, toxicity toward fibroblasts: assessed from the ½+½ and ¼+¼ MEC combinations
Excerpt: Potential cytotoxic effects of the test substances and their combinations toward human dermal fibroblasts were observed using a MTT dye [3-(4,5-dimethylthiazol-2-yl)-2,5-diphenyltetrazolium bromide]-based test first proposed by Mosmann. MTT basically functions on the same principle as resazurin: it is reduced in metabolically active cells to the product named formazan, which differs from MTT by its properties. While MTT is yellow, formazan is blue and water-insoluble. Normal human fibroblasts initially obtained from the Pokrovsky Stem Cell Bank (Saint Petersburg, Russia) were cultured at 37 °C and 5% CO2 in DMEM medium supplemented with 10% fetal bovine serum, glutamine, and Pen-Strep. The day before, experiment cells were detached from the culture flasks using Trypsin-Versene reagent, collected into a sterile 15 mL tube, centrifuged for 10 min at 300× g to discard the previous medium, and resuspended in serum-, glutamine-, and antibiotic-free DMEM. Cells were counted using a hemocytometer; their concentration was adjusted, and they were distributed at 10,000–15,000 cells per well in 90 µL in a 96-well sterile treated flat-bottom plate and left at 37 °C and 5% CO2 overnight to properly adhere. The following day, their well-being was visually checked using an inverted light microscope, and the wells were supplied with 10 µL of the test substances or their combinations in DMEM in 10 times the final desired concentrations. Experimental samples were made in triplicates. […] At least six repeats of each type of the control samples were made. Test plates were incubated at 37 °C and 5% CO2 overnight, and 10 µL of the 5 mg/mL MTT in PBS were introduced into each well the next morning. After another 4 h of incubation at the same conditions, formed formazan crystals were dissolved by adding 110 µL of isopropanol containing 0.04 M HCl (the latter is used to “switch” phenol red pH indicator in DMEM from red to yellow). Then, each sample was thoroughly mixed by repetitive pipetting, and formazan concentration was spectrophotometrically evaluated measuring OD at 540 nm with subtraction of the background at 690 nm.
We resorted to the direct cell count in case the MTT test was not applicable or required verification of some sort. This idea was borrowed from the crystal violet assay for determining viability of cultured cells and is based on the fact that, once dead, adherent cells detach from the surface. Since we were not aiming to analyze a large number of samples in this manner, we simply skipped the staining step of the crystal violet assay, which is also slightly difficult and brings a risk of detaching cells during washing. We proceeded with the same protocol as for the MTT test down to the step of adding MTT dye. Then, instead, we used an inverted light microscope (magnification ×500) to calculate the number of attached cells in 10 fields of view in each experimental well of interest and compared it with the count for the 100% viability control wells. The exact effect was evaluated as viable cells (%) = mean number of adhered cells in a sample / mean number of adhered cells in 100% viability control × 100%.
While analyzing toxicity toward eukaryotic cells, components were mixed in concentrations of ½ MEC (AMP) + ½ MEC (AS) (that can provide the fractional index = 1, denoting additivity, if found effective) and ¼ MEC (AMP) + ¼ MEC (AS) (that can provide the fractional index = 0.5, denoting synergy, if found effective).
Cytotoxic effects of individual substances and their combinations were also evaluated against cultured normal human dermal fibroblasts. We used MTT tests and/or light microscopy for the direct cell count.

[4] = antiseptics and surfactants, serum-free DMEM, overnight, median of 3 independent experiments, prontosan as polyhexanide, etidronic acid primarily by direct cell count

Molecule | Minimal FECI, AMP + CAPB, biofilm formation [1] | Minimal FECI, AMP + DXD, biofilm formation [1] | Minimal FECI, AMP + ETA, biofilm formation [1] | Minimal FECI, AMP + PVG, biofilm formation [1] | Minimal FECI, AMP + PTS, biofilm formation [1] | MECBF partially inhibiting bacterial biofilms [1] | Effect of poviargolum on development of the AMP's suppression of bacterial metabolic activity [2] | MECF [3] | MECF of cytotoxic action toward normal human dermal fibroblasts [3, 4] | also measured
CC[C@H](C)[C@H](NC(=O)[C@H](CCCNC(=N)N)NC(=O)[C@@H](NC(=O)[C@@H]1CCCN1C(=O)[C@@H]1CCCN1C(=O)[C@H](CCCNC(=N)N)NC(=O)[C@H](CCCNC(=N)N)NC(=O)[C@H](Cc1ccccc1)NC(=O)[C@@H]1CCCN1C(=O)[C@H](CC(C)C)NC(=O)[C@H](CCCNC(=N)N)NC(=O)[C@H](Cc1ccccc1)NC(=O)[C@@H](N)CCCNC(=N)N)[C@@H](C)CC)C(=O)N[C@@H](Cc1c[nH]cn1)C(=O)N1CCC[C@H]1C(=O)N1CCC[C@H]1C(=O)N1CCC[C@H]1C(=O)N[C@@H](Cc1ccccc1)C(=O)N[C@@H](Cc1ccc(O)cc1)C(=O)N1CCC[C@H]1C(=O)N1CCC[C@H]1C(=O)N[C@@H](Cc1ccccc1)C(=O)N[C@@H](CCCNC(=N)N)C(=O)N[C@@H](CCCNC(=N)N)C(=O)N[C@@H](Cc1ccccc1)C(=O)N[C@@H](CC(C)C)C(=O)O [ChBac3.4] (H-RFRLPFRRPPIRIHPPPFYPPFRRFL-OH; N-terminus assumed) | 0.5 | 1.12 | 2 | 1 | 0.12 | 1/64 | significantly accelerated |  |  | MECF of cytotoxic action toward normal human dermal fibroblasts [3]: 40 µM
CC(C)C[C@H](NC(=O)[C@H](CCCNC(=N)N)NC(=O)CNC(=O)CNC(=O)[C@@H](N)CCCNC(=N)N)C(=O)N[C@H]1CSSC[C@@H](C(=O)N[C@H](C(=O)NCC(=O)N[C@@H](CCCNC(=N)N)C(N)=O)C(C)C)NC(=O)[C@H](C(C)C)NC(=O)[C@@H]2CSSC[C@H](NC(=O)[C@H](Cc3ccc(O)cc3)NC1=O)C(=O)N[C@@H](CCCNC(=N)N)C(=O)N[C@@H](CCCNC(=N)N)C(=O)N[C@@H](CCCNC(=N)N)C(=O)N[C@@H](Cc1ccccc1)C(=O)N2 [PG-1, protegrin 1] | 0.12 | 1 | 2 | 0.25 | 0.12 | 1/64 | significantly accelerated |  |  | FECI, toxicity toward fibroblasts ([3]; B = cocamidopropyl betaine): 1.0; Toxicity of (¼ MEC A + ¼ MEC B) toward human dermal fibroblasts ([3]; B = cocamidopropyl betaine, experiment 1 of 3 (1st symbol)): +; Toxicity of (¼ MEC A + ¼ MEC B) toward human dermal fibroblasts ([3]; B = cocamidopropyl betaine, experiment 2 of 3 (2nd symbol)): −; Toxicity of (¼ MEC A + ¼ MEC B) toward human dermal fibroblasts ([3]; B = cocamidopropyl betaine, experiment 3 of 3 (3rd symbol)): −; Toxicity of (¼ MEC A + ¼ MEC B) toward human dermal fibroblasts ([3]; B = cocamidopropyl betaine, overall result of 3 independent experiments (square brackets)): −; FECI, toxicity toward fibroblasts ([3]; B = dioxydin): >1.0; FECI, toxicity toward fibroblasts ([3]; B = poviargolum): 1.0; Toxicity of (¼ MEC A + ¼ MEC B) toward human dermal fibroblasts ([3]; B = poviargolum, experiment 1 of 3 (1st symbol)): +; Toxicity of (¼ MEC A + ¼ MEC B) toward human dermal fibroblasts ([3]; B = poviargolum, experiment 2 of 3 (2nd symbol)): −; Toxicity of (¼ MEC A + ¼ MEC B) toward human dermal fibroblasts ([3]; B = poviargolum, experiment 3 of 3 (3rd symbol)): −; Toxicity of (¼ MEC A + ¼ MEC B) toward human dermal fibroblasts ([3]; B = poviargolum, overall result of 3 independent experiments (square brackets)): −; FECI, toxicity toward fibroblasts ([3]; B = prontosan): 1.0; Magnitude of toxic effect toward human dermal fibroblasts ([3]; at 20 μM): higher than 50%
CC(O)(P(=O)(O)O)P(=O)(O)O [Etidronic acid] |  |  |  |  |  | 1/32 |  | less than 2.5 mg/mL | <2500 µg/mL | Cytotoxic effect toward human dermal fibroblasts ([3]; at 2.5 mg/mL): higher than 50%
[O-][n+]1c(CO)c(CO)[n+]([O-])c2ccccc21 [Dioxydin] |  |  |  |  |  | 1/16 |  | 0.5 mg/mL | 500 µg/mL | 
Cocamidopropyl betaine |  |  |  |  |  | 1/512 |  |  | 12.5 µg/mL | 
